In ChEMBL document CHEMBL1641548, “Fused bicyclic derivatives of 2,4-diaminopyrimidine as c-Met inhibitors” (Bioorg Med Chem Lett, 2011):

Assays:
Format in all cases: ADME, organism-based
[1] = AUC (0 to infinity) in rat at 5 mg/kg, po; parameters: time infinity, dose 5 mg/kg, route oral; details: plasma
[2] = Half life in rat at 1 mg/kg, iv; parameters: dose 1 mg/kg, route intravenous; details: in vivo
[3] = Clearance in rat at 1 mg/kg, iv; parameters: dose 1 mg/kg, route intravenous; details: in vivo
[4] = AUC (0 to infinity) in rat at 1 mg/kg, iv; parameters: time infinity, dose 1 mg/kg, route intravenous; details: plasma
[5] = Oral bioavailability in rat at 5 mg/kg, po; details: in vivo

AUC(0-inf) [1]: 592 ng·h/mL | half-life [2]: 42 min | clearance [3]: 15 mL/min/kg | AUC(0-inf) [4]: 1260 ng·h/mL | bioavailability [5]: 8%
Structure (SMILES): CNC(=O)c1cccc(F)c1Nc1nc(Nc2ccc3c(c2)NC(=O)CCC3)ncc1Cl
